Assay results published in US9650400B2, “Voriconazole sodium phosphate hydrates and polymorphs thereof” (SHAANXI SYNTHETIC PHARMACEUTICAL CO., LTD., priority 2013, dated 2017).
Read-outs that look alike come from different tables or passages of the source.

Key:
[1] = Pharmacokinetic experiments in rabbits (intravenous, equimolar); format: in vivo; conditions: rabbit
Method: Two rabbits of same body weight were intravenously administered equimolar voriconazole sodium phosphate and voriconazole, respectively, and an equal volume of blood was drawn from the rabbits at different time intervals, and a metabolism status in body was determined.

[2] = Hydroscopicity comparison (moisture absorption, 25° C. and 80% humidity, 24 hours); format: physicochemical
[3] = format: physicochemical
Method: Sample injection was carried out by using a sample prepared by allowing the sample in Example 17 to absorb moisture, and the results are shown in Table 5.

Aspergillus fumigatus = test: Diffused aspergillosis in guinea pigs; format: in vivo
Method: (§1) In all experiments, particular pathogen-free guinea pigs (body weight of 400-500 g) were used. A conduit was placed in the left jugular vein of the […] infected with Aspergillus fumigatus (4,000 CFU/g body weight) or Candida albicans (4,000 CFU/g body weight) via the lateral veins of penis of the animal or via the implanted conduit. One hour after infection, the animals were subject to an intravenous therapy (5 mg/kg/day). The mean survival time (MST) and the percent survival (% sur) were recorded for each group experimental animals (the number of each group of experimental animals is listed in column “N”) within respective number of days. The amounts of […] in deep tissues (such as liver, spleen, kidney, lung, or brain) were investigated in animals which died during the experiment and in animals which survived the experiment but were later sacrificed in respective groups. “% neg” in Table 1 represents the percent of deep tissues that were culture-negative after treatment.

Candida albicans = test: Diffused candidiasis in guinea pigs; format: in vivo; conditions: intravenous 5 mg/kg/day
Method: as §1

[4] = Aspergillus fumigatus, intravenous 5 mg/kg/day

With `C[C@@H](c1ncncc1F)[C@](O)(Cn1cncn1)c1ccc(F)cc1F` [voriconazole] the “parent nucleus (voriconazole) in blood, peak area” value (shortened to “parent nucleus (voriconazole)”) ([1]; in vivo, iv, 30 min) was 378.34 peak area, the “parent nucleus (voriconazole)” value ([1]; in vivo, iv, 60 min) was 321.69 peak area and the “parent nucleus (voriconazole)” value ([1]; in vivo, iv, 120 min) was 150.45 peak area. The “parent nucleus (voriconazole)” value ([1]; in vivo, iv, 150 min) was 78.35 peak area, the “parent nucleus (voriconazole)” value ([1]; in vivo, iv, 200 min) was 29.71 peak area and the “parent nucleus (voriconazole)” value ([1]; in vivo, iv, 250 min) was 0.234 peak area.

With “Voriconazole phosphate anhydrate [reference compound]” the “Sample weight, 0 hour” value [2] was 0.3938 g, the “Sample weight, 24 hours” value ([2]; 24 hours) was 0.4627 g and the “hydroscopicity (in words)” value ([2]; 24 hours) was “significant hydroscopicity”. The “stability under highly humid conditions (in words)” value [3] was “extremely unstable”, the “Individual impurity, by weight” value ([3]; 0 hour) was “Individual impurity 0.07%” and the “Total impurity, by weight” value ([3]; 0 hour) was “Total impurity 0.10%”.

With voriconazole sodium phosphate the “metabolism in body (in words)” value ([1]; intravenous) was “can be metabolized into voriconazole in body”, the “Prodrug in blood, peak area” value ([1]; intravenous, 30 min) was 235.92 peak area and the “parent nucleus (voriconazole)” value ([1]; intravenous, 30 min) was 0.324 peak area. The “Prodrug in blood, peak area” value ([1]; intravenous, 60 min) was 143.51 peak area, the “parent nucleus (voriconazole)” value ([1]; intravenous, 60 min) was 86.42 peak area and the “Prodrug in blood, peak area” value ([1]; intravenous, 120 min) was 98.59 peak area. The “parent nucleus (voriconazole)” value ([1]; intravenous, 120 min) was 158.32 peak area, the “Prodrug in blood, peak area” value ([1]; intravenous, 150 min) was 2.045 peak area and the “Prodrug in blood, peak area” value ([1]; intravenous, 200 min) was 0 peak area. For the same molecule, the “parent nucleus (voriconazole)” value ([1]; intravenous, 200 min) was 130.38 peak area, the “Prodrug in blood, peak area” value ([1]; intravenous, 250 min) was 0 peak area and the “parent nucleus (voriconazole)” value ([1]; intravenous, 250 min) was 69.23 peak area. For the same molecule, the “potency against fungal infection (in words)” value (Aspergillus fumigatus; Aspergillus fumigatus or Candida albicans infection, conclusion from Table 7) was “very potent against fungal infection”.

With voriconazole sodium phosphate hydrate the “Sample weight, 0 hour” value [2] was 0.3318 g, the “Sample weight, 24 hours” value ([2]; 24 hours) was 0.3441 g and the “Weight increase by moisture absorption, by weight” value ([2]; 24 hours) was 3.6%. The “hydroscopicity (in words)” value ([2]; 24 hours) was “mild hydroscopicity”, the “Individual impurity, by weight” value ([3]; 0 hour) was “Individual impurity 0.06%” and the “Total impurity, by weight” value ([3]; 0 hour) was “Total impurity 0.09%”. For the same molecule, the “Individual impurity, by weight” value ([3]; 24 hour moisture absorption) was “Individual impurity 0.08%”, the “Total impurity, by weight” value ([3]; 24 hour moisture absorption) was “Total impurity 0.13%” and the “change in impurity after absorbing moisture (in words)” value ([3]; 24 hours) was “minor change in impurity”. The “MST (mean survival time)” value (Aspergillus fumigatus; Aspergillus fumigatus 4,000 CFU/g body weight, intravenous 5 mg/kg/day) was 6.2 days, the “% neg (percent of deep tissues culture-negative after treatment)” value (Aspergillus fumigatus; [4]) was 70% and the “% sur (percent survival)” value (Aspergillus fumigatus; [4]) was 66.4%. The “g (liver): CFU/g in culture-positive liver” value (Aspergillus fumigatus; [4]) was 3.5 mean log 10 CFU/g, the “MST (mean survival time)” value (Candida albicans; Candida albicans 4,000 CFU/g body weight) was 9.5 days and the “% neg (percent of deep tissues culture-negative after treatment)” value (Candida albicans; Candida albicans) was 69%. For the same molecule, the “% sur (percent survival)” value (Candida albicans; Candida albicans) was 76.9% and the “g (liver): CFU/g in culture-positive liver” value (Candida albicans; Candida albicans) was 0 mean log 10 CFU/g.
